Earlier results as cited in US20240122962A1, “PHARMACEUTICAL COMPOSITION FOR USE IN THE PREVENTION OR TREATMENT OF A CONDITION ASSOCIATED WITH A REDUCTION IN THE NUMBER OF LACTOBACILLI IN THE VAGINA” (priority 2020, published 2024).

System: bacterial vaginosis (BV)
Conditions: 7-day oral treatment, after 1 month

## Cc1ncc([N+](=O)[O-])n1CCO [Metronidazole, metronidazole]
  cure rate: 80-90%
